Data on 22 compounds can be found in US11390604B2 (Hoffmann-La Roche Inc., priority 2019, dated 2022).

Each structure is given as a SMILES string. Structures can show the parent of a compound that is named as a salt. Where two headings read alike, the source gives them in different places.

The subject of the assay is Acinetobacter baumannii ATCC 17961. Kind of assay: Antimicrobial susceptibility testing: 90% growth inhibitory concentration (IC90) determination. The class given is cell-based. As to conditions: read-out: ATCC 17961 IC90. The essentials:
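Broth microdilution in Iso-Sensitest medium, twofold series (e.g. 50 to 0.097 μM final), ~5×10^5 CFU/ml inoculum, 35±2 °C. OD600 read every 20 min over 16 h. IC90 derived from growth inhibition during logarithmic phase.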

[1] abbreviates: ATCC17961, Acinetobacter baumannii ATCC 17961, Iso-Sensitest broth.

As to `Cn1c(-c2cn(CC3CC(F)(F)C3)nc2C(F)(F)F)cnc1C(=O)Nc1ccc(C(=O)N2CCN(C(=O)C3CCNCC3)CC2)c(Cl)c1` [Example 111, N-[3-chloro-4-[4-(piperidine-4-carbonyl)piperazine-1-carbonyl]phenyl]-5-[1-[(3,3-difluorocyclobutyl)methyl]-3-(trifluoromethyl)pyrazol-4-yl]-1-methylimidazole-2-carboxamide;hydrochloride], the IC90 – broadly, the point of the concentration-response curve where the effect stands at 90% – under setting [1] is 344 nM. Same read-out and setting: in the case of `Cn1c(-c2cn(CCCl)nc2C(F)(F)F)cnc1C(=O)Nc1ccc(C(=O)N2CCN(C(=O)NC3CNC3)CC2)c(Cl)c1` [Example 251, N-(azetidin-3-yl)-4-[2-chloro-4-[[5-[1-(2-chloroethyl)-3-(trifluoromethyl)pyrazol-4-yl]-1-methyl-imidazole-2-carbonyl]amino]benzoyl]pipera-zine-1-carboxamide] it was 306 nM; in that of `Cn1c(-c2cn(C3CC3(F)F)nc2C(F)(F)F)cnc1C(=O)Nc1ccc(C(=O)NC2C[C@@H]3CC[C@@H](C2)N3)c(Cl)c1` (mixture of isomers) [Example 283, rac-N-(4-(((1R,3s,5S)-8-azabicyclo[3.2.1]octan-3-yl)carbamoyl)-3-chlorophenyl)-5-(1-(2,2-difluorocyclopropyl)-3-(trifluoromethyl)-1H-pyrazol-4-yl)-1-methyl-1H-imidazole-2-carboxamide formate], 348 nM. With `CN(CCCCNC(=O)c1ccc(NC(=O)c2ncc(-c3cn(C4CC4(F)F)nc3C(F)(F)F)n2C)cc1Cl)C(=O)N[C@H]1CNC[C@@H]1O` (mixture of isomers) [Example 331, rac-N-(3-chloro-4-((4-(3-((3S,4S)-4-hydroxypyrrolidin-3-yl)-1-methylureido)butyl)carbamoyl)phenyl)-5-(1-(2,2-difluorocyclopropyl)-3-(trifluoromethyl)-1H-pyrazol-4-yl)-1-methyl-1H-imidazole-2-carboxamide formate], under setting [1], the IC90 is 422 nM. `Cn1c(-c2cn(CC#N)nc2C(F)(F)F)cnc1C(=O)Nc1ccc(C(=O)N[C@H]2C[C@@H](NC(=O)[C@H]3CC[C@@H](N)C3)C2)c(Cl)c1` [Example 96, N-[4-[[3-[[(1S,3R)-3-aminocyclopentanecarbonyl]amino]cyclobutyl]carbamoyl]-3-chlorophenyl]-5-[1-(cyanomethyl)-3-(trifluoromethyl)pyrazol-4-yl]-1-methylimidazole-2-carboxamide;2,2,2-trifluoroacetic acid]: under setting [1], the IC90 was determined as 498 nM. Turning to `Cn1c(-c2cn(C3CC3(F)F)nc2C(F)(F)F)cnc1C(=O)Nc1ccc(C(=O)N[C@H]2[C@@H]3CN(C(=O)C4CCNCC4)C[C@@H]32)c(Cl)c1` (stereo partly drawn) [Example 172, N-(3-chloro-4-(((1R,5S,6s)-3-(piperidine-4-carbonyl)-3-azabicyclo[3.1.0]hexan-6-yl)carbamoyl)phenyl)-5-(1-(2,2-difluorocyclopropyl)-3-(trifluoromethyl)-1H-pyrazol-4-yl)-1-methyl-1H-imidazole-2-carboxamide formate], the 90% effect concentration (IC90) under setting [1] was 146 nM. Take `Cn1c(-c2cn(C3CC3)nc2C(F)(F)F)cnc1C(=O)Nc1ccc(C(=O)N2CCN(C(=O)[C@H]3CCCCN3)CC2)c(Cl)c1` [Example 273, (R)-N-(3-chloro-4-(4-(piperidine-2-carbonyl)piperazine-1-carbonyl)phenyl)-5-(1-cyclopropyl-3-(trifluoromethyl)-1H-pyrazol-4-yl)-1-methyl-1H-imidazole-2-carboxamide hydrochloride]: the IC90 under setting [1] is 336 nM. Regarding `Cc1cc(NC(=O)c2ncc(-c3cn(CC#N)nc3C(F)(F)F)n2C)ccc1C(=O)N1CCN(C(=O)C2CCNCC2)CC1` [Example 30, 5-(1-(cyanomethyl)-3-(trifluoromethyl)-1H-pyrazol-4-yl)-1-methyl-N-(3-methyl-4-(4-(piperidine-4-carbonyl)piperazine-1-carbonyl)phenyl)-1H-imidazole-2-carboxamide], the IC90 under setting [1] came out at 867 nM. For `Cn1c(-c2cn(CC#N)nc2C(F)(F)F)cnc1C(=O)Nc1ccc(C(=O)N2CCNCC2)c(Cl)c1` [Example 69, N-[3-chloro-4-(piperazine-1-carbonyl)phenyl]-5-[1-(cyanomethyl)-3-(trifluoromethyl)pyrazol-4-yl]-1-methylimidazole-2-carboxamide;2,2,2-trifluoroacetic acid], under setting [1], the IC90 amounted to 309 nM. As for `Cn1c(-c2cn(C3CC3(F)F)nc2C(F)(F)F)cnc1C(=O)Nc1ccc(C(=O)NC2CCN(C(=O)N[C@H]3C[C@@H](N)C3)CC2)c(Cl)c1` (mixture of isomers) [Example 237, rac-N-((1s,3s)-3-aminocyclobutyl)-4-(2-chloro-4-(5-(1-(2,2-difluorocyclopropyl)-3-(trifluoromethyl)-1H-pyrazol-4-yl)-1-methyl-1H-imidazole-2-carboxamido)benzamido)piperi-dine-1-carboxamide formate], the IC90 under setting [1] was 271 nM.

As for `Cn1c(-c2cn(C3CC3)nc2C(F)(F)F)cnc1C(=O)Nc1ccc(C(=O)N2CCCC(CN)C2)c(Cl)c1` (stereo not shown) [Example 277, N-[4-[3-(aminomethyl)piperidine-1-carbonyl]-3-chlorophenyl]-5-[1-cyclopropyl-3-(trifluoromethyl)pyrazol-4-yl]-1-methylimidazole-2-carboxamide;hydrochloride], the IC90 under setting [1] was 343 nM. On to `Cn1cc(-c2cnc(C(=O)Nc3ccc(C(=O)N4CCN(C(=O)[C@@H]5C[C@@H](O)CN5)CC4)c(Cl)c3)n2C)c(C(F)(F)F)n1` [Example 55, N-[3-Chloro-4-[4-[(2S,4R)-4-hydroxypyrrolidine-2-carbonyl]piperazine-1-carbonyl]phenyl]-1-methyl-5-[1-methyl-3-(trifluoromethyl)pyrazol-4-yl]imidazole-2-carboxamide], for which, under setting [1], the IC90 was 1940 nM. In the case of `Cn1c(-c2cn(C3CC3)nc2C(F)(F)F)cnc1C(=O)Nc1ccc(C(=O)N2CCN(C(=O)N[C@H]3C[C@H](N)C3)CC2)c(Cl)c1` [Example 225, N-(3-aminocyclobutyl)-4-[2-chloro-4-[[5-[1-cyclopropyl-3-(trifluoromethyl)pyrazol-4-yl]-1-methylimidazole-2-carbonyl]amino]benzoyl]pipera-zine-1-carboxamide;formic acid], under setting [1], the concentration for an effect of 90% (IC90) turned out to be 256 nM. Consider `Cn1c(-c2cn(C3CC3(F)F)nc2C(F)(F)F)cnc1C(=O)Nc1ccc(C(=O)NC2[C@H]3CN(C(=O)N[C@H]4CCNC4)C[C@@H]23)c(Cl)c1` (mixture of isomers) [Example 189], for which, under setting [1], the concentration for an effect of 90% (IC90) turned out to be 167 nM. For `C=CCn1cc(-c2cnc(C(=O)Nc3ccc(C(=O)NC4CC(N)C4)c(Cl)c3)n2C)c(C(F)(F)F)n1` (stereo not shown) [Example 126, N-[4-[(3-aminocyclobutyl)carbamoyl]-3-chlorophenyl]-1-methyl-5-[1-prop-2-enyl-3-(trifluoromethyl)pyrazol-4-yl]imidazole-2-carboxamide;2,2,2-trifluoroacetic acid], the 90% effect concentration (IC90) (Acinetobacter baumannii ATCC 17961, Iso-Sensitest broth) was found to be 293 nM.

For the compound `Cn1c(-c2cn(C3CC3(F)F)nc2C(F)(F)F)cnc1C(=O)Nc1ccc(C(=O)N2C[C@H]3CN(C(=O)N[C@H]4CNC[C@@H]4O)C[C@H]3C2)c(Cl)c1` (mixture of isomers) [Example 288, rac-(3aR,6aS)-5-(2-chloro-4-(5-(1-(2,2-difluorocyclopropyl)-3-(trifluoromethyl)-1H-pyrazol-4-yl)-1-methyl-1H-imidazole-2-carboxamido)benzoyl)-N-((3R,4R)-4-hydroxypyrrolidin-3-yl)hexahydropyrrolo[3,4-c]pyrrole-2(1H)-carboxamide formate], the IC90 under setting [1] is 354 nM.

As to `C#CCn1cc(-c2cnc(C(=O)Nc3ccc(C(=O)N4CCN(C(=O)N5CC6CNC6C5)CC4)c(Cl)c3)n2C)c(C(F)(F)F)n1` (stereo not shown) [Example 86, N-[3-chloro-4-[4-(3,6-diazabicyclo[3.2.0]heptane-3-carbonyl)piperazine-1-carbonyl]phenyl]-1-methyl-5-[1-prop-2-ynyl-3-(trifluoromethyl)pyrazol-4-yl]imidazole-2-carboxamide], the IC90 under setting [1] amounted to 203 nM. With `Cn1c(-c2cn(C3CC3(F)F)nc2C(F)(F)F)cnc1C(=O)Nc1ccc(C(=O)NCCCCNC(=O)OC(C)(C)C)c(Cl)c1` (stereo not shown) [Example 314, tert-butyl (4-(2-chloro-4-(5-(1-(2,2-difluorocyclopropyl)-3-(trifluoromethyl)-1H-pyrazol-4-yl)-1-methyl-1H-imidazole-2-carboxamido)benzamido)butyl) carbamate], under setting [1], the IC90 was determined as 388 nM. With `Cn1c(-c2cn(C3CC3)nc2C(F)(F)F)cnc1C(=O)Nc1ccc(C(=O)N2CCN(C(=O)NC3CCNC3)CC2)c(Cl)c1` (stereo not shown) [Example 236, 4-[2-chloro-4-[[5-[1-cyclopropyl-3-(trifluoromethyl)pyrazol-4-yl]-1-methylimidazole-2-carbonyl]amino]benzoyl]-N-pyrrolidin-3-ylpiperazine-1-carboxamide;formic acid], the IC90 under setting [1] is 270 nM. On to `Cn1c(-c2cn(CC(F)F)nc2C(F)(F)F)cnc1C(=O)Nc1ccc(C(=O)N[C@H]2[C@@H]3CN(C(=O)N[C@@H]4CNC[C@H]4O)C[C@@H]32)c(Cl)c1` [Example 386, (1R,5S,6s)-6-(2-chloro-4-(5-(1-(2,2-difluoroethyl)-3-(trifluoromethyl)-1H-pyrazol-4-yl)-1-methyl-1H-imidazole-2-carboxamido)benzamido)-N-((3R,4R)-4-hydroxypyrrolidin-3-yl)-3-azabicyclo[3.1.0]hexane-3-carboxamide formate], for which the IC90 under setting [1] came out at 110 nM. As to `CN(C)CC(=O)N1CCN(S(=O)(=O)c2ccc(NC(=O)c3ncc(-c4c[nH]nc4C(F)(F)F)n3C)cc2Cl)CC1` [Example 58, N-(3-Chloro-4-((4-(dimethylglycyl)piperazin-1-yl)sulfonyl)phenyl)-1-methyl-5-(3-(trifluoromethyl)-1H-pyrazol-4-yl)-1H-imidazole-2-carboxamide], the IC90 under setting [1] is 952 nM. Turning to `CNC(=O)Cn1cc(-c2cnc(C(=O)Nc3ccc(C(=O)N4CCN(C(=O)C5CCNCC5)CC4)c(Cl)c3)n2C)c(C(F)(F)F)n1` [Example 28, N-(3-chloro-4-(4-(piperidine-4-carbonyl)piperazine-l-carbonyl)phenyl)-1-methyl-5-(1-(2-(methylamino)-2-oxoethyl)-3-(trifluoromethyl)-1H-pyrazol-4-yl)-1H-imidazole-2-carboxamide formate], the IC90 under setting [1] was 1490 nM.
